Data reported in patent EP0808325B1, “[…] […] SERIES FOR […] GABA RECEPTOR” (priority 1994, dated 1996).

What was measured:
[1] = tested on: metrazol induced convulsions; test: animal or person; assay type: in vivo, mice; details: for % Protected: 10 mg/kg
Method: Experiments were also performed to determine the physiological relevance of neuroactive steroid and GABA receptor interactions by assessing the ability of the compounds of and used in the invention to prevent metrazol induced convulsions in mice. […] The time to onset of myoclonus (presence of forelimb clonic activity) induced by metrazol was determined by observing each mouse for a period of 30 minutes. […]
The anticonvulsant tests are similar to that described above. […] The number of animals with tonic and/or clonic convulsions was recorded. In the maximal electroshock test, 50 mA of current at 60 Hz was delivered through corneal electrodes for 200 msec to induce tonic seizure. The ability of compounds to abolish the tonic component was defined as the endpoint. General CNS depression potential was determined by a rotorod test 10 minutes after the injection of compounds where the number of mice staying on a rotating (6 rpm) rod for 1 minute in one of the three trials was determined. […]

[2] = molecular target: GR complex; test: modulation of [35S]TBPS binding in rat cerebral cortex P2 homogenate; design: species or system Sprague-Dawley rats; IMAX: unit not given here; details: for IC50: concentration of compounds to inhibit 50% of control [35S]TBPS binding, 2 nM [35S]TBPS, 25°C, 90 minutes, no unit printed; for IMAX: maximum inhibition of [35S]TBPS binding, I* = Inactive
Method: We performed several experiments to determine the nature of the modulation of [^35S]TBPS as affected by the compounds of the invention.
These procedures were performed as follows:
Brains from male Sprague-Dawley rats were removed immediately following sacrifice and the cerebral cortices dissected over ice. […] Briefly, the cortices were gently homogenized in 0.32 M sucrose followed by centrifugation at 1000 x g for 10 minutes. The supernatant was collected and centrifuged at 9000 x g for 20 minutes. The resultant P2 pellet was suspended as a 10% (original wet weight/volume) suspension in 50 mM Na/K phosphate buffer (pH 7.4) 200 mM NaCI to form the homogenate.
One hundred microliter […] aliquots of the P2 homogenate (0.5 milligrams (mg) protein) were incubated with 2 nanomolar (nM) [^35S]TBPS (70-110 curies/millimole;, New England Nuclear, Boston, MA) in the presence or absence of the naturally occurring steroids or their synthetic derivatives to be tested. The tested compounds were dissolved in dimethylsulfoxide (Baker Chem. Co., Phillipsbury, NJ) and added to the incubation mixture in 5 µL aliquots. The incubation mixture was brought to a final volume of 1 mL with buffer. Nonspecific binding was defined as binding in the presence of […]. The effect and specificity of GABA (Sigma Chem. Co., St. Louis, MO) was evaluated by performing all assays in the presence of GABA plus (+)bicuculline (Sigma Chem. Co.). Incubations maintained at 25°C for 90 minutes (steady state conditions) were terminated by rapid filtration through glass fiber filters (No. 32, Schleicher and Schuell, Keene, NH). Filter-bound radioactivity was quantitated by liquid scintillation spectrophotometry.
Various compounds were screened to determine their potential as modulators of [^35S]TBPS binding in vitro. These assays were performed in accordance with the above discussed procedures. […] It is an indication of a compound's in vitro potency. Maximum inhibition is an indication of a compound's in vitro efficacy.

[3] = 60 mg/kg, 1 hr, IP, anti-metrazol
[4] = IP, 50% hpbcd, 10 minutes prior to metrazol (85 mg/kg)

| SMILES | IC50 [2] [nM] | IMAX [2] | other results |
| --- | --- | --- | --- |
| CCCC(=O)O[C@@H]1CC[C@@]2(C)[C@@H](CC[C@@H]3[C@@H]2CC[C@]2(C)[C@@H](C(C)=O)CC[C@@H]32)C1 [Propyl] |  |  | % Protection [1, 3]: 75% |
| CCC(=O)OC1CCC2(C)C(CCC3C2CCC2(C)C(C(C)=O)CCC32)C1 (stereo not shown) [Ethyl] |  |  | % Protection [1, 3]: 75% |
| CC(=O)C1CCC2C3CCC4CC(OC(=O)c5ccc(Cl)cc5)CCC4(C)C3CCC12C (stereo not shown) [4-Chlorophenyl] |  |  | % Protection [1, 3]: 50% |
| CC(=O)C1CCC2C3CCC4CC(OC(=O)C(C)C)CCC4(C)C3CCC12C (stereo not shown) [Example 2-Propyl] |  |  | % Protection [1, 3]: 75% |
| C=C[C@@]1(O)CC[C@@]2(C)[C@@H](CC[C@@H]3[C@@H]2CC[C@]2(C)[C@@H](C(=O)COC(=O)CCC(=O)O)CC[C@@H]32)C1 [3α,21-dihydroxy-3β-ethenyl-5α-pregnan-20-one 21-hemisuccinate] | 377 | 89 |  |
| C=C[C@@]1(O)CC[C@@]2(C)[C@@H](CC[C@@H]3[C@@H]2CC[C@]2(C)[C@@H](C(=O)CO)CC[C@@H]32)C1 [3α,21-dihydroxy-3β-ethenyl-5α-pregnan-20-one] | 288 | 101 |  |
| CCCC(CCC)C(=O)OC1CCC2(C)C(CCC3C2CCC2(C)C(C(C)=O)CCC32)C1 (stereo not shown) [Example 4-Heptyl] |  |  | % Protection ([1]; 60 mg/kg, IP, 4 hour, anti-metrazol): 16 (4 hour) % |
| CC(=O)C1CCC2C3CCC4CC(OC(=O)c5cccnc5)CCC4(C)C3CCC12C (stereo not shown) [Example 3-Pyridyl] |  |  | % Protection ([1]; 60 mg/kg, IP, 20 hour, anti-metrazol): 50 (20 hour) % |
| C[C@@]1(O)CC[C@@]2(C)[C@@H](CC[C@@H]3[C@@H]2CC[C@]2(C)[C@@H](C(=O)CO)CC[C@@H]32)C1 [3α,21-dihydroxy-3β-methyl-5α-pregnan-20-one] | 258 | 96 | % Protected [1, 4]: 87.5% |
| CC(=O)[C@H]1CC[C@H]2[C@@H]3CC[C@H]4C[C@](C)(O)CC[C@]4(C)[C@H]3C=C[C@]12C [3α-hydroxy-3β-methyl-5α-pregn-11-en-20-one] | 242 | 76 |  |
| CCCCC#C[C@@]1(O)CC[C@@]2(C)[C@H](CC[C@@H]3[C@@H]2CC[C@]2(C)[C@@H](C(C)=O)CC[C@@H]32)C1 [3β-(1-hexynyl)-3α-hydroxy-5β-pregnan-20-one] |  |  | % Protected [1, 4]: 37.5% |
| C#CC1(O)CCC2(C)C(CCC3C2CCC2(C)C(C(C)O)CCC32)C1 (stereo not drawn) [3α,20α-dihydroxy-3β-ethynyl-5α-pregnane, 3β-Ethynyl-3α,20α-dihydroxy-5α-pregnane] | 202 | 56 |  |
| CC(C)CCC[C@@H](C)[C@H]1CC[C@H]2[C@@H]3CC=C4C[C@@H](O)CC[C@]4(C)[C@H]3CC[C@]12C [cholesterol, reference compound] | > 1000 | I* |  |
| CC12CCC(O)(C(F)(F)F)CC1CCC1C2CCC2(C)C(C(=O)CBr)CCC12 (stereo not drawn) [21-bromo-3α-hydroxy-3β-trifluoromethyl-5β-pregnan-20-one] | 1530 | 102 |  |
| CC(=O)C1=CC[C@H]2[C@@H]3CC[C@@H]4C[C@](C)(O)CC[C@]4(C)[C@H]3CC[C@]12C [3α-hydroxy-3β-methyl-5β-pregn-16-en-20-one] | 955 | 100 |  |
| CCC(=O)[C@H]1CC[C@H]2[C@@H]3CC[C@@H]4C[C@H](O)CC[C@]4(C)[C@H]3CC[C@]12C [3α-hydroxy-21-methyl-5β-pregnan-20-one] | 78 | 100 |  |
| CC(O)C1CCC2C3CCC4CC(C)(O)CCC4(C)C3CCC12C (stereo not drawn) [3α,20β-dihydroxy-3β-methyl-5β-pregnane] | 455 | 105 |  |
| CCCCC(=O)OC1CCC2(C)C(CCC3C2CCC2(C)C(C(C)=O)CCC32)C1 (stereo not shown) [Butyl] |  |  | % Protection ([1]; mouse, in vivo): 33% |

| SMILES | IC50 [2] [nM] | IMAX [2] | other results |
| --- | --- | --- | --- |
| CC(=O)OCC(=O)[C@H]1CC[C@H]2[C@@H]3CC[C@@H]4C[C@H](O)CC[C@]4(C)[C@H]3CC[C@]12C [3α,21-dihydroxy-5β-pregnan-20-one 21-acetate] | 119 | 49 | % Protected [1, 4]: 25% |
| CC(=O)OC1CCC2(C)C(CCC3C2CCC2(C)C(C(C)=O)CCC32)C1 (stereo not shown) [Methyl] |  |  | % Protection [1, 3]: 25% |
| CCC(=O)[C@H]1CC[C@H]2[C@@H]3CC[C@H]4C[C@](C)(O)CC[C@]4(C)[C@H]3CC[C@]12C [3α-hydroxy-3β,21-dimethyl-5α-pregnan-20-one] | 89 | 85 |  |
| C[C@]12CC[C@](O)(C(F)(F)F)C[C@H]1CC[C@@H]1[C@@H]2CC[C@]2(C)[C@@H](C(=O)COC(=O)CCC(=O)O)CC[C@@H]12 [3α,21-Dihydroxy-3β-trifluoromethyl-5β-pregnan-20-one, 21-hemisuccinate] | 648 | 101 | % Protected ([1]; IP, water): 50% |
| CC(=O)[C@H]1CC[C@H]2[C@@H]3CC[C@H]4C[C@](C)(O)CC[C@]4(C)[C@H]3C(=O)C[C@]12C [3α-hydroxy-3β-methyl-5α-pregnane-11,20-dione] | 958 | 100 |  |
| CC(=O)OCC(=O)[C@H]1CC[C@H]2[C@@H]3CC[C@H]4C[C@](C)(O)CC[C@]4(C)[C@H]3CC[C@]12C [3α,21-Hydroxy-3β-methyl-5α-pregnan-20-one, 21-acetate] | 284 | 93 | % Protected ([1]; IP, micro soln.): 10% |
| CC(=O)C1CCC2C3CCC4CC(OC(=O)c5ccccc5)CCC4(C)C3CCC12C (stereo not shown) [Phenyl] |  |  | % Protection [1, 3]: 33% |
| CC(O)C1CCC2C3CCC4CC(C)(O)CCC4(C)C3CCC12C (stereo not drawn) [3α,20β-dihydroxy-3β-methyl-5α-pregnane] | 924 | 99 |  |
| CC(C)(O)[C@H]1CC[C@H]2[C@@H]3CC[C@@H]4C[C@](C)(O)CC[C@]4(C)[C@H]3CC[C@]12C [3α,20-Dihydroxy-3β,20-dimethyl-5β-pregnane] |  |  | % Protected ([1]; IP, micro soln.): 22.2% |
| C#CC1(O)CCC2(C)C(CCC3C2CCC2(C)C(C(C)O)CCC32)C1 (stereo not drawn) [3α,20α-dihydroxy-3β-ethynyl-5β-pregnane, 3β-Ethynyl-3α,20α-dihydroxy-5β-pregnane] | 557 | 98 |  |
| COC(=O)CCC(=O)OCC(=O)C1CCC2C3CCC4CC(O)(C(F)(F)F)CCC4(C)C3CCC12C (stereo not drawn) [3α,21-dihydroxy-3β-trifluoromethyl-5β-pregnan-20-one methyl 21-succinate] | 480 | 86 |  |
| CC(=O)C1CCC2C3CCC4CC(O)(C#CCCCCl)CCC4(C)C3CCC12C (stereo not drawn) [3β-(5'-chloropentyn-1'-yl)-3α-hydroxy-5β-pregnan-20-one] | 44 | 98 |  |
| C[C@]12CC[C@@H](O)C[C@@H]1CC[C@@H]1[C@@H]2CC[C@]2(C)[C@@H](C(=O)COC(=O)CCC(=O)O)CC[C@@H]12 [3α,21-dihydroxy-5α-pregnan-20-one 21-hemisuccinate] | 117 | 91 |  |
| C[C@]12C[C@H](O)[C@H]3[C@@H](CCC4=CC(=O)CC[C@@]43C)[C@@H]1CC[C@@H]2C(=O)CO [corticosterone, reference compound] | > 1000 | I* |  |
| CC(=O)[C@H]1CC[C@H]2[C@@H]3CC[C@@H]4C[C@](C)(O)CC[C@@H]4[C@H]3CC[C@]12C [3α-hydroxy-3β-methyl-5β-19-nor-pregnan-20-one] | 26 | 94 |  |
| CC(=NCCO)[C@H]1CC[C@H]2[C@@H]3CC[C@H]4C[C@](C)(O)CC[C@]4(C)[C@H]3CC[C@]12C [N-(3α-hydroxy-3β-methyl-5α-pregnan-20-ylidine)ethanolamine] | 101 | 93 |  |
| CC(=O)[C@H]1CC[C@H]2[C@@H]3CCC4=CC(=O)CC[C@]4(C)[C@H]3CC[C@]12C [progesterone, reference compound] | > 1000 | I* |  |
| COc1ccc(C(=O)OC2CCC3(C)C(CCC4C3CCC3(C)C(C(C)=O)CCC43)C2)cc1 (stereo not shown) [4-Methoxyphenyl] |  |  | % Protection [1, 3]: 17% |
